Experiments:
[1] = tested on: SUM149, SUM149R, SUM159, and SUM159R cells; assay: Synergy studies (ATPlite, combination indices, isobolograms); type: cell-based, human
Description: SUM149, SUM149R, SUM159, and SUM159R cells were seeded in sterile, white, opaque 384-well microtiter plates (Thermo), using an automated dispensing system (BioTek EL406), at 1,000 cells per well in 50 μl of media. Drugs were delivered in DMSO by robotic pin transfer with a JANUS workstation (100 nl) to achieve a matrix of pairwise dose-response incubations of each compound, each pair having eight replicates. Following 72 hours of incubation, ATP levels were determined for treated cells and vehicle controls (ATPlite, PerkinElmer). Data were normalized to vehicle controls. Combination indices were determined using the median-effect principle of Chou and Talalay^49 (CalcuSyn Software). Isobologram plots were generated with GraphPad Prism software. Points represent paired values of drug concentrations assessed for synergism. The diagonal line signifies drug additivity. Points above the line represent antagonistic drug combinations, and those below the line represent synergistic drug combinations. Synergy assays were performed in triplicates and repeated 2-3 times.

[2] = tested on: tumors derived from BBI-resistant SUM149 cells; assay: Xenograft assay, BBI-resistant SUM149; type: in vivo, mice; conditions: administered along with JQ1
Description: (§1) For xenograft assays 5-6-weeks old female CrTac:NCr-Foxn1^nu and NOD.Cg-Prkdc^scid Il2rg^tm1Sug/JicTac mice were purchased from Taconic. Tumors were induced by bilateral orthotopic mammary fat pad injection of 1×10^6 cells in 50% Matrigel (BD Biosciences) in DMEM/F12 or Medium 171 (except for IDC50-X cells, which were injected with 3% FBS and 4 mg/ml collagen gel in Medium 171). Animal experiments were conducted following protocol 11-023 approved by the Dana-Farber Cancer Institute Animal Care and Use Committee.

[3] = tested on: xenografts derived from SUM159R cells; assay: Xenograft assay, SUM159R (BBI-resistant SUM159); type: in vivo, mice; conditions: administered along with JQ1
Description: as §1

phospho-BRD4 (pBRD4) = assay: Immunoblot analysis of phospho-BRD4; type: cell-based, human; conditions: SUM159R, SUM149R, and other cell lines; short-term treatment
Source text: Immunoblotting and immunoprecipitation experiments were repeated 2-3 times.

[4] = tested on: BRD4-MED1 association in SUM159R cells; assay: BRD4 immunoprecipitation followed by immunoblot for MED1, resistant cells; type: cell-based, human; conditions: SUM159R, 3 hrs treatment
Description: Cells were lysed five days after transfection with siRNAs in RIPA buffer. Proteins were resolved in SDS-polyacrylamide gels (4%-12%) and transferred to PVDF membranes by using a Tris-glycine buffer system. […] Cells were incubated on ice for 15 min and gently vortexed every 5 min. […] After centrifugation of the lysates at 14 g for 10 min at 4° C., supernatant was diluted with 0.6 ml buffer A, and added NP-40 to final 0.5% and treated with DNase I. The samples were then incubated at 4° C. overnight with BRD4 or Flag antibodies at 1:100 dilution and immunoprecipitates were collected on Dynabeads Protein G for 2 hr. Beads were washed with buffer B containing 150 mM NaCl and 0.5% NP-40 three times and then resuspended in gel loading buffer. Immunoblotting and immunoprecipitation experiments were repeated 2-3 times.

[5] = tested on: MDR (multi drug resistance) pumps in SUM159 and SUM159R cells; assay: Multi-Drug Resistance (MDR) assay; type: cell-based, human; conditions: with JQ1
Description: Cell viability and growth assays (FIGS. 1A-1B, FIGS. 3A-3E, 3G, FIGS. 5D-5F, FIGS. 6C, 6E, 6I, FIG. 7A, FIG. 10D, FIGS. 14A-14C), cycle, apoptosis, and MDR assays were performed in triplicates and repeated 2-3 times. For cell proliferation assays, cells were plated at 500 cells per well in 96-well plates and treated the next day with inhibitors, DMSO or doxycycline (500 ng). Cells were cultured at 37° C. with 5% CO2 in the media described-above, and cell viability was measured using CellTiter-Glo three days after treatments. For cell growth assays, cells were plated at 5000 (SUM159) or 20000 (SUM149) cells per well in 6-well plates and treated the next day with inhibitors. Cells were counted every three days by cell counter. Cellular apoptosis was analyzed with an APC AnnexinV/7ADD Apoptosis Detection kit (BD Pharmingen). AnnexinV/7AAD assessments and cell cycle graphics were generated using FlowJo software V7.6.1 for Windows (Tree Star). Senescence Beta-gal staining was performed using Senescence β-Galactosidase staining kit from Cell signaling. Briefly, after JQ1 treatment (500 nM) for 72 h, SUM159 and MDA-MB-231 cells were fixed by Fixative Solution for 15 min, followed by β-Galactosidase solution incubation overnight at 37° C. The staining was checked under microscope for the development of blue color. […]

[6] = summary statement, resistant cells

Structure (SMILES)	Synergy with JQ1 [1, 6]	Synergy with JQ1 ([1]; synergy screens, 72 hours)	Tumor weight [2]	Tumor weight [3]	also measured
CN(C)CC[C@H](CSc1ccccc1)Nc1ccc(S(=O)(=O)NC(=O)c2ccc(N3CCN(Cc4ccccc4-c4ccc(Cl)cc4)CC3)cc2)cc1[N+](=O)[O-] [ABT737, 4-[4-[[2-(4-chlorophenyl)phenyl]methyl]piperazin-1-yl]-N-[4-[[(2R)-4-(dimethylamino)-1-phenylsulfanylbutan-2-yl]amino]-3-nitrophenyl] sulfonylbenzamide]	substantial synergy	Significant synergy			
CC1(C)CCC(CN2CCN(c3ccc(C(=O)NS(=O)(=O)c4ccc(NCC5CCOCC5)c([N+](=O)[O-])c4)c(Oc4cnc5[nH]ccc5c4)c3)CC2)=C(c2ccc(Cl)cc2)C1 [ABT 199, 4-[4-[[2-(4-chlorophenyl)-4,4-dimethylcyclohexen-1-yl]methyl]piperazin-1-yl]-N-[3-nitro-4-(oxan-4-ylmethylamino)phenyl]sulfonyl-2-(1H-pyrrolo[2,3-b]pyridin-5-yloxy)benzamide]	substantial synergy		reduced tumor weight to a greater extent than the corresponding single therapy and JQ1 alone	reduced tumor weight to a greater extent than the corresponding single therapy and JQ1 alone	
CC1(C)CCC(c2ccc(Cl)cc2)=C(CN2CCN(c3ccc(C(=O)NS(=O)(=O)c4ccc(N[C@H](CCN5CCOCC5)CSc5ccccc5)c(S(=O)(=O)C(F)(F)F)c4)cc3)CC2)C1 [ABT 263, 4-[4-[[2-(4-chlorophenyl)-5,5-dimethylcyclohexen-1-yl]methyl]piperazin-1-yl]-N-[4-[[(2R)-4-morpholin-4-yl-1-phenylsulfanylbutan-2-yl]amino]-3-(trifluoromethylsulfonyl)phenyl]sulfonylbenzamide]	substantial synergy		reduced tumor weight to a greater extent than the corresponding single therapy and JQ1 alone	reduced tumor weight to a greater extent than the corresponding single therapy and JQ1 alone	
O=C(O)c1ccc2c(c1)nc(Nc1cccc(Cl)c1)c1ccncc12 [CX-4945, 5-(3-chloroanilino)benzo[c][2,6]naphthyridine-8-carboxylic acid]	substantial synergy	Significant synergy			
N#CC[C@H](C1CCCC1)n1cc(-c2ncnc3[nH]ccc23)cn1 [INC424]			reduced tumor weight to a greater extent than the corresponding single therapy and JQ1 alone	reduced tumor weight to a greater extent than the corresponding single therapy and JQ1 alone	
OCCN1CCN(CCCN2c3ccccc3Sc3ccc(Cl)cc32)CC1 [perphenazine]	substantial synergy	Significant synergy			
c1ccc2c(c1)Nc1ccccc1S2 [phenothiazine]					pBRD4 levels (phospho-BRD4 (pBRD4)): rapid dephosphorylation of BRD4; MED1 abundance in BRD4 immunoprecipitation [4]: decreased MED1 abundance
COc1ccc(CCN(C)CCCC(C#N)(c2ccc(OC)c(OC)c2)C(C)C)cc1OC (centres unmarked) [verapamil]					Effect of co-incubation with MDR1 inhibitor on BBI-resistance [5]: had no effect
